Laboratory results from patent US20260256933A1, “METHOD FOR TREATING CANCER VIA ANTI-B7H3 ANTIBODY-DRUG CONJUGATE” (MediLink Therapeutics (Suzhou) Co., Ltd., priority 2023, published 2026).

Key:
[1] = tested on: recurrent or malignant cervical cancer; details: treatment of recurrent or malignant cervical cancer; clinical; cited from earlier work
[2] = tested on: B-hB7-H3 MC38 transplantation tumours; experiment: B-hB7-H3 MC38 transplantation tumour model, ADC1 in combination with anti-PD-L1 drug; type: in vivo, C57BL/6 mice; details: G4: anti-PD-L1 3 mg/kg i.p. BIW x4
Method: MC38 cells (Shunran (Shanghai) Biotechnology Co., Ltd.) were genetically modified to express the human B7H3 genes, thereby obtaining B-hB7-H3 MC38 cells. The cells were subcutaneously inoculated into C57BL/6 mice to establish a B-hB7-H3 MC38 tumour cell transplantation tumour model. When the tumours grew to approximately 140 mm^3, grouping for animal experiments was performed, a control group (G1: 0.9% sodium chloride injection), monotherapy groups (G2: ADC1 10 mg/kg group, G3: ADC1 3 mg/kg group, G4: anti-PD-L1 3 mg/kg group), and combination therapy groups (G5: group with ADC1 10 mg/kg in combination with anti-PD-L1 3 mg/kg, G6: group with ADC1 3 mg/kg in combination with anti-PD-L1 3 mg/kg) were established respectively, with 8 mice in each group. Dosing was performed according to the regimen in Table 1. The anti-PD-L1 drug was atezolizumab (Biocytogen). At the end of the experiment, therapeutic effects were evaluated according to the tumour growth inhibition (TGI), and tolerability was evaluated according to clinical observations, body weight changes, and mortality of the animals.
Note: a: the dosing volume was calculated at […] based on the body weight of the experimental animals, and each drug injection was completed within 10 to 20 seconds. • b: BIW refers to administration twice weekly. When the combined treatment groups were dosed on the same day, there was no required sequence or dosing interval between the two drugs.
Note: a: mean±standard error; b: statistical comparison of the tumour volume in the dosing groups versus the tumour volume in the G1 control group on Day 22 after grouping for dosing, one-way ANOVA analysis and Dunnett's test; ****p<0.0001. c: the tumour clearance proportion was counted according to the results on Day 25.

Substance	ORR [1] [%]	TGITV (%) ([2]; Day 22)	Tumour volume before dosing ([2]; baseline before dosing, mean) [mm3]	Tumour clearance proportion ([2]; counted on Day 25)	Tumour volume Day 22 after grouping for dosing ([2]; mean) [mm3]
Tivdak: an ADC drug targeting TF	24	–	–	–	–
atezolizumab [Anti-PD-L1]	–	22.4	140	0/8	1689
